Values of other authors, collected in US20250127746A1, “TOPICAL CONTACT SENSITIZERS TO TREAT CANCER” (Squarex Pharmaceutical Corporation, priority 2023, published 2025).
Entries after “also recorded” stand apart in the source; their conditions may differ.

What was measured:
common warts = details: Candida injected, SADBE applied topically
[1] = test system: herpes labialis outbreaks
[2] = test system: PBMCs stimulated with HSV-1
[3] = prevention of cold sore episodes

CCCCOc1c(OCCCC)c(=O)c1=O [SADBE, 3,4-Dibutoxy-3-cyclobutene-1,2-dione]
efficacy to treat common warts (common warts): effective in treating warts; also recorded: effective to treat common warts | time after which efficacy begins to wane [1, 3]: 3 to 4 months | time for a dose to take effect [1, 3]: 2 to 8 weeks | number of oral herpes (herpes labialis) outbreaks ([1]; topical application to the arm): effective in preventing (reducing the number of) herpes labialis episodes; also recorded: reduce frequency of herpes labialis outbreaks; also recorded: prevent and reduce the number of oral herpes outbreaks | expression of interferon gamma (IFNG) by isolated PBMCs exposed to HSV ([2]; 8 weeks after a topical application to the arm): increased | PBMC proliferation and immune gene expression profile versus subjects with infrequent or zero outbreaks ([2]; 56 days after a single topical dose, versus day 1): more like those of the subjects with infrequent or zero outbreaks | change of immune response type ([2]; single dose, against both herpes simplex virus and Candida extract): from a type 2 immune response to a type 1 immune response
